Legend:
Type in all cases: in vivo
[1] = test system: Crabgrass (Digitaria sanguinalis); experiment: Pre-Emergent Test, herbicidal effectiveness; conditions: pre-emergence, 504 h, 33 micrograms per cm^2, 3 weeks, 0-to-100 scale, read-out: Herbicidal Effectiveness, % Control Pre, C
How it was run: (§1)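 Soil-surface application at a dose of 33 micrograms/cm^2 to newly planted seeds, followed by watering and greenhouse incubation. Effectiveness scored visually, 0–100 scale.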

[2] = test system: Lambsquarter (Chenopodium album); experiment: Pre-Emergent Test, herbicidal effectiveness; conditions: pre-emergence, 504 h, 33 micrograms per cm^2, 3 weeks, 0-to-100 scale, read-out: Herbicidal Effectiveness, % Control Pre, L
How it was run: as §1

[3] = test system: Mustard (Brassica arvensis); experiment: Pre-Emergent Test, herbicidal effectiveness; conditions: pre-emergence, 504 h, 33 micrograms per cm^2, 3 weeks, 0-to-100 scale
How it was run: as §1

[4] = test system: Pigweed (Amaranthus retroflexus); experiment: Pre-Emergent Test, herbicidal effectiveness; conditions: pre-emergence, 504 h, 33 micrograms per cm^2, 3 weeks, 0-to-100 scale, read-out: Herbicidal Effectiveness, % Control Pre, P
How it was run: as §1

[5] = test system: Watergrass (Echinochloa); experiment: Pre-Emergent Test, herbicidal effectiveness; conditions: pre-emergence, 504 h, 33 micrograms per cm^2, 3 weeks, 0-to-100 scale, read-out: Herbicidal Effectiveness, % Control Pre, W
How it was run: as §1

[6] = test system: Wild Oats (Avena fatua); experiment: Pre-Emergent Test, herbicidal effectiveness; conditions: pre-emergence, 504 h, 33 micrograms per cm^2, 3 weeks, 0-to-100 scale, read-out: Herbicidal Effectiveness, % Control Pre, O
How it was run: as §1

[7] = test system: Crabgrass (Digitaria sanguinalis); experiment: Post-Emergent Test, herbicidal effectiveness; conditions: post-emergence, 504 h, 33 micrograms per cm^2, 3 weeks, 0-to-100 scale, read-out: Herbicidal Effectiveness, % Control Post, C
How it was run: (§2)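 Herbicidal effect was judged visually 3 weeks after spraying 24-day-old plants (two pots, roughly 15–25 plants each) with 33 micrograms/cm^2 of compound applied as a 5000 ppm surfactant-containing formulation. Scale ran 0 (no phytotoxicity) to 100 (complete kill).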

[8] = test system: Lambsquarter (Chenopodium album); experiment: Post-Emergent Test, herbicidal effectiveness; conditions: post-emergence, 504 h, 33 micrograms per cm^2, 3 weeks, 0-to-100 scale, read-out: Herbicidal Effectiveness, % Control Post, L
How it was run: as §2

[9] = test system: Mustard (Brassica arvensis); experiment: Post-Emergent Test, herbicidal effectiveness; conditions: post-emergence, 504 h, 33 micrograms per cm^2, 3 weeks, 0-to-100 scale
How it was run: as §2

[10] = test system: Pigweed (Amaranthus retroflexus); experiment: Post-Emergent Test, herbicidal effectiveness; conditions: post-emergence, 504 h, 33 micrograms per cm^2, 3 weeks, 0-to-100 scale, read-out: Herbicidal Effectiveness, % Control Post, P
How it was run: as §2

[11] = test system: Watergrass (Echinochloa); experiment: Post-Emergent Test, herbicidal effectiveness; conditions: post-emergence, 504 h, 33 micrograms per cm^2, 3 weeks, 0-to-100 scale, read-out: Herbicidal Effectiveness, % Control Post, W
How it was run: as §2

[12] = test system: Wild Oats (Avena fatua); experiment: Post-Emergent Test, herbicidal effectiveness; conditions: post-emergence, 504 h, 33 micrograms per cm^2, 3 weeks, 0-to-100 scale, read-out: Herbicidal Effectiveness, % Control Post, O
How it was run: as §2

| Structure (SMILES) | pest or weed control at 33 µg/cm2 [1] [%] | pest or weed control at 33 µg/cm2 [2] [%] | pest or weed control at 33 µg/cm2 [3] [%] | pest or weed control at 33 µg/cm2 [4] [%] | pest or weed control at 33 µg/cm2 [5] [%] | pest or weed control at 33 µg/cm2 [6] [%] | pest or weed control at 5000 µg/mL, 33 µg/cm2 [7] [%] | pest or weed control at 5000 µg/mL, 33 µg/cm2 [8] [%] | pest or weed control at 5000 µg/mL, 33 µg/cm2 [9] [%] | pest or weed control at 5000 µg/mL, 33 µg/cm2 [10] [%] | pest or weed control at 5000 µg/mL, 33 µg/cm2 [11] [%] | pest or weed control at 5000 µg/mL, 33 µg/cm2 [12] [%] |
| --- | --- | --- | --- | --- | --- | --- | --- | --- | --- | --- | --- | --- |
| CSc1nnc(CN(C(=O)CCl)c2c(C)cccc2C)o1 [Compound 24B] | 100 | 10 | 10 | 10 | 100 | 85 | 0 | 0 | 0 | 0 | 0 | 0 |
| Cc1nnc(CNc2ccccc2C)[nH]1 [Compound 25A] | 0 | 0 | 0 | 0 | 0 | 0 | 0 | 0 | 0 | 0 | 0 | 0 |
| Cc1nnc(CN(C(=O)CCl)c2ccccc2C)[nH]1 [Compound 25B] | 97 | 100 | 45 | 70 | 100 | 0 | 0 | 0 | 0 | 0 | 40 | 0 |
| Cc1nnc(CN(C(=O)CCl)c2cccc(C(F)(F)F)c2)[nH]1 [Compound 26B] | 0 | 10 | 10 | 0 | 65 | 0 | 0 | 0 | 0 | 0 | 0 | 0 |
| Cc1nnc(CNc2ccc(Cl)c(Cl)c2)[nH]1 [Compound 27A] | 0 | 0 | 0 | 0 | 0 | 0 | 0 | 0 | 0 | 0 | 0 | 0 |
| Cc1nnc(CN(C(=O)CCl)c2ccc(Cl)c(Cl)c2)[nH]1 [Compound 27B] | 0 | 0 | 0 | 0 | 0 | 0 | 0 | 0 | 0 | 0 | 0 | 0 |

From patent US4243408A, “Herbicidal N-triazolylmethyl-substituted alpha-haloacetanilide” (Chevron Research Company, priority 1978, dated 1981)
